Measurements taken from ChEMBL document CHEMBL3797178, “Synthesis, antimycobacterial and antibacterial activity of 1-(6-amino-3,5-difluoropyridin-2-yl)fluoroquinolone derivatives containing an oxime functional moiety” (2016).
Values after ≈ are worked out from the molar mass of the structure shown.

Experiments:
Assay type in all cases: functional
[1] = test system: Staphylococcus epidermidis; experiment: Antibacterial activity against methicillin-sensitive Staphylococcus epidermidis 14-2 after 18 to 24 hrs by CLSI M100-S11 method
[2] = test system: Staphylococcus epidermidis; experiment: Antibacterial activity against methicillin-resistant Staphylococcus epidermidis 14-39 after 18 to 24 hrs by CLSI M100-S11 method
[3] = test system: Staphylococcus epidermidis; experiment: Antibacterial activity against methicillin-sensitive Staphylococcus epidermidis 14-6 after 18 to 24 hrs by CLSI M100-S11 method
Pseudomonas aeruginosa [4] = experiment: Antibacterial activity against Pseudomonas aeruginosa 14-9 after 18 to 24 hrs by CLSI M100-S11 method
Streptococcus pneumoniae = experiment: Antibacterial activity against Streptococcus pneumoniae ATCC 19615 after 18 to 24 hrs by CLSI M100-S11 method
Staphylococcus aureus [5] = experiment: Antibacterial activity against methicillin-sensitive Staphylococcus aureus 14-2 after 18 to 24 hrs by CLSI M100-S11 method
Enterococcus faecium [6] = experiment: Antibacterial activity against Enterococcus faecium 14-1 after 18 to 24 hrs by CLSI M100-S11 method
Escherichia coli [7] = experiment: Antibacterial activity against Escherichia coli 14-2 after 18 to 24 hrs by CLSI M100-S11 method
Staphylococcus aureus [8] = experiment: Antibacterial activity against methicillin-sensitive Staphylococcus aureus 14-4 after 18 to 24 hrs by CLSI M100-S11 method
Escherichia coli [9] = experiment: Antibacterial activity against Escherichia coli ATCC 25922 after 18 to 24 hrs by CLSI M100-S11 method
Pseudomonas aeruginosa [10] = experiment: Antibacterial activity against Pseudomonas aeruginosa 14-19 after 18 to 24 hrs by CLSI M100-S11 method
Escherichia coli [11] = experiment: Antibacterial activity against extended-spectrum beta-lactamase-producing Escherichia coli 14-2 after 18 to 24 hrs by CLSI M100-S11 method
Enterococcus faecalis [12] = experiment: Antibacterial activity against Enterococcus faecalis 14-1 after 18 to 24 hrs by CLSI M100-S11 method
[13] = test system: Staphylococcus epidermidis; experiment: Antibacterial activity against methicillin-resistant Staphylococcus epidermidis 14-22 after 18 to 24 hrs by CLSI M100-S11 method
Staphylococcus aureus [14] = experiment: Antibacterial activity against methicillin-resistant Staphylococcus aureus 14-5 after 18 to 24 hrs by CLSI M100-S11 method
Klebsiella pneumoniae [15] = experiment: Antibacterial activity against extended-spectrum beta-lactamase-producing Klebsiella pneumoniae 14-17 after 18 to 24 hrs by CLSI M100-S11 method
Pseudomonas aeruginosa [16] = experiment: Antibacterial activity against Pseudomonas aeruginosa 14-14 after 18 to 24 hrs by CLSI M100-S11 method
Klebsiella pneumoniae [17] = experiment: Antibacterial activity against Klebsiella pneumoniae 14-1 after 18 to 24 hrs by CLSI M100-S11 method
Klebsiella pneumoniae [18] = experiment: Antibacterial activity against extended-spectrum beta-lactamase-producing Klebsiella pneumoniae 14-19 after 18 to 24 hrs by CLSI M100-S11 method
Klebsiella pneumoniae [19] = experiment: Antibacterial activity against Klebsiella pneumoniae 14-4 after 18 to 24 hrs by CLSI M100-S11 method
Klebsiella pneumoniae [20] = experiment: Antibacterial activity against extended-spectrum beta-lactamase-producing Klebsiella pneumoniae 14-18 after 18 to 24 hrs by CLSI M100-S11 method
[21] = test system: Staphylococcus epidermidis; experiment: Antibacterial activity against methicillin-resistant Staphylococcus epidermidis 14-37 after 18 to 24 hrs by CLSI M100-S11 method
Escherichia coli [22] = experiment: Antibacterial activity against Escherichia coli 14-1 after 18 to 24 hrs by CLSI M100-S11 method
Pseudomonas aeruginosa [23] = experiment: Antibacterial activity against Pseudomonas aeruginosa 14-16 after 18 to 24 hrs by CLSI M100-S11 method
[24] = test system: Mycobacterium tuberculosis; experiment: Antimycobacterial activity against Mycobacterium tuberculosis H37Rv ATCC 27294 after 3 days by microplate Alamar Blue assay; settings: H37Rv ATCC 27294, 72 h
Pseudomonas aeruginosa [25] = experiment: Antibacterial activity against Pseudomonas aeruginosa ATCC 27853 after 18 to 24 hrs by CLSI M100-S11 method
Klebsiella pneumoniae [26] = experiment: Antibacterial activity against Klebsiella pneumoniae 14-2 after 18 to 24 hrs by CLSI M100-S11 method
Staphylococcus aureus [27] = experiment: Antibacterial activity against methicillin-resistant Staphylococcus aureus 14-4 after 18 to 24 hrs by CLSI M100-S11 method
[28] = test system: Staphylococcus epidermidis; experiment: Antibacterial activity against methicillin-sensitive Staphylococcus epidermidis 14-4 after 18 to 24 hrs by CLSI M100-S11 method
Enterococcus faecalis [29] = experiment: Antibacterial activity against Enterococcus faecalis 14-2 after 18 to 24 hrs by CLSI M100-S11 method
Klebsiella pneumoniae [30] = experiment: Antibacterial activity against Klebsiella pneumoniae 14-3 after 18 to 24 hrs by CLSI M100-S11 method
Enterococcus faecium [31] = experiment: Antibacterial activity against Enterococcus faecium 14-2 after 18 to 24 hrs by CLSI M100-S11 method
Staphylococcus aureus [32] = experiment: Antibacterial activity against methicillin-sensitive Staphylococcus aureus 14-3 after 18 to 24 hrs by CLSI M100-S11 method
Staphylococcus aureus [33] = experiment: Antibacterial activity against Staphylococcus aureus CMCC 26003 after 18 to 24 hrs by CLSI M100-S11 method
Escherichia coli [34] = experiment: Antibacterial activity against extended-spectrum beta-lactamase-producing Escherichia coli 14-1 after 18 to 24 hrs by CLSI M100-S11 method
Enterococcus faecalis [35] = experiment: Antibacterial activity against Enterococcus faecalis 14-3 after 18 to 24 hrs by CLSI M100-S11 method
Pseudomonas aeruginosa [36] = experiment: Antibacterial activity against Pseudomonas aeruginosa 14-15 after 18 to 24 hrs by CLSI M100-S11 method

SMILES	MIC [1]	MIC [2]	MIC [3]	MIC (Pseudomonas aeruginosa [4])	MIC (Streptococcus pneumoniae)	MIC (Staphylococcus aureus [5])	MIC (Enterococcus faecium [6])	MIC (Escherichia coli [7])	MIC (Staphylococcus aureus [8])	MIC (Escherichia coli [9])	MIC (Pseudomonas aeruginosa [10])	MIC (Escherichia coli [11])	MIC (Enterococcus faecalis [12])	MIC [13]	MIC (Staphylococcus aureus [14])	MIC (Klebsiella pneumoniae [15])	MIC (Pseudomonas aeruginosa [16])	MIC (Klebsiella pneumoniae [17])	MIC (Klebsiella pneumoniae [18])	MIC (Klebsiella pneumoniae [19])	also measured
CCO/N=C1\CN(c2nc3c(cc2F)c(=O)c(C(=O)O)cn3-c2nc(N)c(F)cc2F)[C@@H]1CN	> 128 µg/mL	> 132 µg/mL	> 128 µg/mL	128 µg/mL (≈ 268 µM)	64 µg/mL (≈ 134 µM)	32 µg/mL (≈ 67 µM)	> 128 µg/mL	> 128 µg/mL	32 µg/mL (≈ 67 µM)	16 µg/mL (≈ 33.5 µM)	128 µg/mL (≈ 268 µM)	> 128 µg/mL	> 128 µg/mL	> 128 µg/mL	> 128 µg/mL	> 128 µg/mL	128 µg/mL (≈ 268 µM)	> 128 µg/mL	> 128 µg/mL	> 128 µg/mL	MIC (Klebsiella pneumoniae [20]): > 128 µg/mL; MIC [21]: > 128 µg/mL; MIC (Escherichia coli [22]): > 128 µg/mL; MIC (Pseudomonas aeruginosa [23]): 128 µg/mL (≈ 268 µM); MIC [24]: > 32 µg/mL; MIC (Pseudomonas aeruginosa [25]): 128 µg/mL (≈ 268 µM); MIC (Klebsiella pneumoniae [26]): > 128 µg/mL; MIC (Staphylococcus aureus [27]): > 128 µg/mL; MIC [28]: > 128 µg/mL; MIC (Enterococcus faecalis [29]): > 128 µg/mL; MIC (Klebsiella pneumoniae [30]): > 128 µg/mL; MIC (Enterococcus faecium [31]): 128 µg/mL (≈ 268 µM); MIC (Staphylococcus aureus [32]): 32 µg/mL (≈ 67 µM); MIC (Staphylococcus aureus [33]): 16 µg/mL (≈ 33.5 µM); MIC (Escherichia coli [34]): > 128 µg/mL; MIC (Enterococcus faecalis [35]): > 128 µg/mL; MIC (Pseudomonas aeruginosa [36]): 128 µg/mL (≈ 268 µM)
CC1(CN)CN(c2nc3c(cc2F)c(=O)c(C(=O)O)cn3-c2nc(N)c(F)cc2F)C/C1=N\OCc1ccccc1 (stereo unspecified)	> 128 µg/mL	> 128 µg/mL	> 128 µg/mL	128 µg/mL (≈ 226 µM)	32 µg/mL (≈ 56.4 µM)	0.25 µg/mL (≈ 0.441 µM)	> 128 µg/mL	128 µg/mL (≈ 226 µM)	4 µg/mL (≈ 7.05 µM)	16 µg/mL (≈ 28.2 µM)	128 µg/mL (≈ 226 µM)	> 128 µg/mL	> 128 µg/mL	64 µg/mL (≈ 113 µM)	64 µg/mL (≈ 113 µM)	> 128 µg/mL	128 µg/mL (≈ 226 µM)	> 128 µg/mL	> 128 µg/mL	> 128 µg/mL	MIC (Klebsiella pneumoniae [20]): > 128 µg/mL; MIC [21]: > 128 µg/mL; MIC (Escherichia coli [22]): > 128 µg/mL; MIC (Pseudomonas aeruginosa [23]): 128 µg/mL (≈ 226 µM); MIC [24]: 15.6 µg/mL (≈ 27.5 µM); MIC (Pseudomonas aeruginosa [25]): 128 µg/mL (≈ 226 µM); MIC (Klebsiella pneumoniae [26]): > 128 µg/mL; MIC (Staphylococcus aureus [27]): 64 µg/mL (≈ 113 µM); MIC [28]: > 128 µg/mL; MIC (Enterococcus faecalis [29]): > 128 µg/mL; MIC (Klebsiella pneumoniae [30]): > 128 µg/mL; MIC (Enterococcus faecium [31]): 8 µg/mL (≈ 14.1 µM); MIC (Staphylococcus aureus [32]): 8 µg/mL (≈ 14.1 µM); MIC (Staphylococcus aureus [33]): 0.25 µg/mL (≈ 0.441 µM); MIC (Escherichia coli [34]): 64 µg/mL (≈ 113 µM); MIC (Enterococcus faecalis [35]): > 128 µg/mL; MIC (Pseudomonas aeruginosa [36]): 128 µg/mL (≈ 226 µM)
NCC1CN(c2nc3c(cc2F)c(=O)c(C(=O)O)cn3-c2nc(N)c(F)cc2F)C/C1=N\OCc1ccccc1 (stereo unspecified)	64 µg/mL (≈ 116 µM)	32 µg/mL (≈ 57.8 µM)	32 µg/mL (≈ 57.8 µM)	32 µg/mL (≈ 57.8 µM)	16 µg/mL (≈ 28.9 µM)	0.015 µg/mL (≈ 0.0271 µM)	128 µg/mL (≈ 231 µM)	128 µg/mL (≈ 231 µM)	0.25 µg/mL (≈ 0.452 µM)	0.5 µg/mL (≈ 0.903 µM)	32 µg/mL (≈ 57.8 µM)	128 µg/mL (≈ 231 µM)	8 µg/mL (≈ 14.5 µM)	16 µg/mL (≈ 28.9 µM)	128 µg/mL (≈ 231 µM)	64 µg/mL (≈ 116 µM)	32 µg/mL (≈ 57.8 µM)	128 µg/mL (≈ 231 µM)	128 µg/mL (≈ 231 µM)	128 µg/mL (≈ 231 µM)	MIC (Klebsiella pneumoniae [20]): 32 µg/mL (≈ 57.8 µM); MIC [21]: 32 µg/mL (≈ 57.8 µM); MIC (Escherichia coli [22]): 128 µg/mL (≈ 231 µM); MIC (Pseudomonas aeruginosa [23]): 32 µg/mL (≈ 57.8 µM); MIC [24]: 3.81 µg/mL (≈ 6.88 µM); MIC (Pseudomonas aeruginosa [25]): 8 µg/mL (≈ 14.5 µM); MIC (Klebsiella pneumoniae [26]): 128 µg/mL (≈ 231 µM); MIC (Staphylococcus aureus [27]): 64 µg/mL (≈ 116 µM); MIC [28]: 32 µg/mL (≈ 57.8 µM); MIC (Enterococcus faecalis [29]): 16 µg/mL (≈ 28.9 µM); MIC (Klebsiella pneumoniae [30]): 128 µg/mL (≈ 231 µM); MIC (Enterococcus faecium [31]): 16 µg/mL (≈ 28.9 µM); MIC (Staphylococcus aureus [32]): 0.25 µg/mL (≈ 0.452 µM); MIC (Staphylococcus aureus [33]): < 0.008 µg/mL; MIC (Escherichia coli [34]): 8 µg/mL (≈ 14.5 µM); MIC (Enterococcus faecalis [35]): 16 µg/mL (≈ 28.9 µM); MIC (Pseudomonas aeruginosa [36]): 32 µg/mL (≈ 57.8 µM)
